{"source": "paper PMC12794084", "about": "“Radiosynthesis and Preclinical Evaluation of a Novel ^11C‑Labeled Pyrazolopyrimidine Derivative for Positron Emission Tomography Imaging of Phosphodiesterase 2A” (ACS Medicinal Chemistry Letters, 2025)", "key": {"[1]": {"target": "T1, PDE2A (Rattus norvegicus, UniProt Q01062)", "T1 construct": "we first conducted in vitro autoradiography studies on SD rat brain sections; from tissue; host or cells: male Sprague-Dawley rat brain sections (20 μm)", "T1 sequence (Q01062 1-928)": "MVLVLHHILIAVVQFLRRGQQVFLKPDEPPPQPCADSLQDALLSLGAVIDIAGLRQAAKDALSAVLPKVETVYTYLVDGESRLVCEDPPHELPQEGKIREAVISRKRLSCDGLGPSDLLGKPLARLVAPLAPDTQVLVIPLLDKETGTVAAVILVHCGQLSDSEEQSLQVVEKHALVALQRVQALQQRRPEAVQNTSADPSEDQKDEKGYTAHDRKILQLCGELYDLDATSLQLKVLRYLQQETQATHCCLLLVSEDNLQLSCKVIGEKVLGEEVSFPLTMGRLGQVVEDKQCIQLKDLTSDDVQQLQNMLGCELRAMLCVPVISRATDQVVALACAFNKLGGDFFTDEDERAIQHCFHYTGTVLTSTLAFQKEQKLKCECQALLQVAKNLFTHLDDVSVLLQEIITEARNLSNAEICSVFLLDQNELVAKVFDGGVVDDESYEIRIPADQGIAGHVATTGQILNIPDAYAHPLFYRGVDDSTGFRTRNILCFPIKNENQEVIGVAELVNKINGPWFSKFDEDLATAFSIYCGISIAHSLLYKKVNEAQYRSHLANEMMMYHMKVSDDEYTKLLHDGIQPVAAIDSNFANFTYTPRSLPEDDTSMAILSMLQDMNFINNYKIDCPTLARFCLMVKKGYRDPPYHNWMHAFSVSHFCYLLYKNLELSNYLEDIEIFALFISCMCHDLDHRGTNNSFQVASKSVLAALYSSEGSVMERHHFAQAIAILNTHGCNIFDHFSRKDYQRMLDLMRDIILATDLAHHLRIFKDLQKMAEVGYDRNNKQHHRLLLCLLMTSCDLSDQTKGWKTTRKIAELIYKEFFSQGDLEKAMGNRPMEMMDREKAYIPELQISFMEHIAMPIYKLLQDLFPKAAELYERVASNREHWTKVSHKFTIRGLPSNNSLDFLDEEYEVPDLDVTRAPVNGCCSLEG", "experiment": "In vitro autoradiography on SD rat brain sections", "assay_type": "binding", "settings": "co-incubation with 1 μM blocker", "method": "After incubation, sections were washed three times (2 min each) with prechilled buffer and briefly rinsed in cold distilled water (10 s). The slices were then air-dried and placed on imaging screens for 60 min before being scanned using a BAS5000 system (Fujifilm)."}, "[2]": {"target": "PDE2A (Homo sapiens, UniProt O00408)", "sequence (O00408 whole entry)": "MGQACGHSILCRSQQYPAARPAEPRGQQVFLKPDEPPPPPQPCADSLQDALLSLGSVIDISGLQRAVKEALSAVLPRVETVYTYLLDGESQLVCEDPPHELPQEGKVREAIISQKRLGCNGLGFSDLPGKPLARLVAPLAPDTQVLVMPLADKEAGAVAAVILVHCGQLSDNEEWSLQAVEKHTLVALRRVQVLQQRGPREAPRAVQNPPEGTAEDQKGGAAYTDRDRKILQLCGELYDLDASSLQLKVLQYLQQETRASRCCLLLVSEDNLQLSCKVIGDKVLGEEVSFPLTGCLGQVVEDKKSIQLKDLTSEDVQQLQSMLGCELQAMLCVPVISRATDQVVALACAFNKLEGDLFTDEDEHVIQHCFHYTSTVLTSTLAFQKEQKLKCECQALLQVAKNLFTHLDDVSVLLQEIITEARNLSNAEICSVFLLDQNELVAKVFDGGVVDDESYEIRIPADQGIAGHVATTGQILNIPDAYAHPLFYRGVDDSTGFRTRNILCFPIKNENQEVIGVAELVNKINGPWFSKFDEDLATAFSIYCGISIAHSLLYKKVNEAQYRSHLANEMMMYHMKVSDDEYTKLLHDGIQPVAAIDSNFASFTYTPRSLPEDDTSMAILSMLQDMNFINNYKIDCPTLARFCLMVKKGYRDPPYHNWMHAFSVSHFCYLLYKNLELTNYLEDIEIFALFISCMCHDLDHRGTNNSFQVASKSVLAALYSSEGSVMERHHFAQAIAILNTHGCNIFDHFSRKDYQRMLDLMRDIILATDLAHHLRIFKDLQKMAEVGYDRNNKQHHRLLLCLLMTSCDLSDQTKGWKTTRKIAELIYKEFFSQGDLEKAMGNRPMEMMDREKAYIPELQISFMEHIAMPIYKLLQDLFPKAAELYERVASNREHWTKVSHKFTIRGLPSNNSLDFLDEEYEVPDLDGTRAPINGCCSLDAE", "settings": "cited from earlier work"}, "[3]": {"experiment": "logD by shake flask method with LC-MS/MS analysis", "assay_type": "physicochemical"}, "[4]": {"experiment": "Unbound brain fraction", "assay_type": "in vitro ADME"}, "[5]": {"experiment": "Dynamic PET imaging in SD rats", "assay_type": "in vivo", "settings": "SD rat, baseline", "method": "Dynamic PET imaging was performed using an Inveon PET scanner (Siemens). […] Images were reconstructed using a Hanning filter with a Nyquist cutoff of 0.5 cycles/pixel, with the following framing: 4 × 1 min, 8 × 2 min, and 8 × 5 min. Data analysis was performed using PMOD version 3.4."}, "[6]": {"experiment": "Ex vivo whole-body biodistribution in ddY mice", "set-up": "species or system mouse", "settings": "60 min postinjection, i.v.", "method": "Decay-corrected radioactivity in each organ was measured using a Wizard automatic gamma counter (PerkinElmer, USA)."}, "[7]": {"experiment": "Ex vivo radiometabolite analysis in SD rats", "settings": "SD rat", "description": "Brain and plasma samples were rapidly collected and processed following previously reported procedures."}}, "note": "Where two headings read alike, the source gives them in different places.", "data": [{"smiles": "Cn1ncc(-c2nn(C)c3ncnc(N4CCC4)c23)c1-c1ccc(C(F)(F)F)cc1", "note": "[PF-05085727]", "values": [{"measurement": "blocking effect on [11C]1 signal in autoradiography", "setting": "[1]", "value": "significantly reduced the radiotracer signal in PDE2A-rich regions"}]}, {"smiles": "Cc1nc(-c2cnn(C)c2-c2ccc(C(F)(F)F)cc2)c2c(N3CC([18F])C3)ncnn12", "note": "[[^18F]PF-05270430]", "values": [{"measurement": "IC50", "setting": "[2]; literature PET radioligands", "value": 0.5, "unit": "nM"}]}, {"smiles": "Cc1nc(NC2(c3ccc(C(F)(F)F)cc3)CC2)c2cnn(C)c2n1", "note": "[compound 1, 1,6-Dimethyl-N-(1-(4-(trifluoromethyl)-phenyl)-cyclopropyl)-1H-pyrazolo[3,4-d]-pyrimidin-4-amine]", "values": [{"measurement": "logD", "setting": "[3]", "value": 3.88}, {"measurement": "f u brain", "setting": "[4]", "value": 7.2, "unit": "%"}]}, {"smiles": "COc1ccc2nnc3c(C)nc(-c4cc(OCCCC[18F])ccc4F)n3c2n1", "note": "[[^18F]TA4]", "values": [{"measurement": "IC50", "setting": "[2]; triazine scaffold tracers, ref Schröder et al.", "value": 7.3, "unit": "nM"}]}, {"smiles": "Cc1nc(NC2(c3ccc(C(F)(F)F)cc3)CC2)c2cnn([11CH3])c2n1", "note": "[[^11C]1]", "values": [{"measurement": "brain distribution in summed PET images", "setting": "[5]; 3–20 min", "value": "homogeneous distribution"}, {"measurement": "SUVmax (brain uptake)", "setting": "[5]; at 2 min postinjection", "value": 1.65}, {"measurement": "brain SUV", "setting": "[5]; by 20 min", "value": "below 0.5"}, {"measurement": "small intestine uptake", "setting": "[6]", "value": "11 ± 1.5", "unit": "% ID/g"}, {"measurement": "% of unchanged form in brain", "setting": "[7]; 10 min postinjection", "value": 97, "unit": "%"}, {"measurement": "% of unchanged form in plasma", "setting": "[7]; 10 min postinjection", "value": 54, "unit": "%"}, {"measurement": "% of unchanged form in brain", "setting": "[7]; 30 min postinjection", "value": 86, "unit": "%"}, {"measurement": "% of unchanged form in plasma", "setting": "[7]; 30 min postinjection", "value": 34, "unit": "%"}]}, {"smiles": "COc1ccc(Cc2nn3c([C@@H](CCCc4ccccc4)[C@@H](C)O)nc(C)c3c(=O)[nH]2)cc1OC", "note": "[BAY 60-7550]", "values": [{"measurement": "blocking effect on [11C]1 signal in autoradiography", "setting": "[1]", "value": "significantly reduced the radiotracer signal in PDE2A-rich regions"}]}]}
